Measured values: patent US20060240494A1, “Biocidal molecules, macromolecular targets and methods of production and use” (priority 2000, published 2006)
Where two headings read alike, the source gives them in different places. Non-standard residues stand in square brackets, D forms with d. No end group written: not given here. *: point of attachment. Biotin = O=C1N[C@H]2[C@H](CS[C@H]2CCCCC(=O)*)N1

Tests used:
[1] = tested on: E. coli LPS; settings: nitrocellulose membrane-bound LPS
[2] = tested on: LPS from S. typhimurium; settings: nitrocellulose membrane-bound LPS
[3] = target: Hsp70 (Homo sapiens, UniProt P0DMV8); settings: nitrocellulose membrane-bound protein; 10 μg/ml peptide
[4] = target: DnaK (Escherichia coli, UniProt P0A6Y8); settings: 1 μg DnaK; biotin-labeled peptide
[5] = target: E. coli DnaK aa397-439, conventional peptide binding pocket (Escherichia coli, UniProt P0A6Y8); settings: non-specific binding; 10 μg/mL biotin-labeled peptide
Source text: (§1) A control strip was stained with amido black 10B to verify the presence of all DnaK fragments on the nitrocellulose sheet.

[6] = tested on: E. coli strains (including TG-1, or K-12)
[7] = target: GroEL (Escherichia coli, UniProt P0A6F5); settings: nitrocellulose membrane-bound protein; 10 μg/ml peptide
[8] = target: E. coli DnaK aa583-615, hinge region between helices D and E (Escherichia coli, UniProt P0A6Y8); settings: 5 μg fragment; 10 μg/mL biotin-labeled peptide
Source text: as §1

[9] = target: T1, recombinant E. coli DnaK (Escherichia coli, UniProt P0A6Y8); assay: EnzChek ATPase assay, recombinant DnaK; assay type: biochemical; settings: 50 molar equivalents of peptide; 22° C., 30 min; UV absorbance at 360 nm
T1 construct: purchased StressGen, Victoria, Canada
Source text: To determine whether the proline-rich antibacterial peptides that were predicted to bind to DnaK between the peptide binding pocket and the C-terminus would interfere with ATPase activity, a recently developed continuous spectrophotometric (colorimetric) ATPase activity assay [Rieger, C. E. et al, (1997) Anal. Biochem. 246: 86-95] was used. This assay uses using 2-amino-6-mercapto-7-methylpurine ribonucleoside (MESG)/purine nucleoside phosphorylase reaction to detect the released inorganic phosphate (EnzChek ATPase determination kit from Molecular Probes, Eugene, USA). Assays were performed in 500 μL tubes in duplicates in a total volume of 125 μL containing 20 mM tris(hydroxymethyl)amino-ethane (Tris)-HCl, pH 7.6, 1 mM MgCl2, […] (except in assaying the baseline), 5 μg of DnaK (recombinant DnaK protein from StressGen,Victoria, Canada) and 50 molar equivalents of the particular peptide, MESG and the purine nucleoside phosphorylase recommended by the manufacturer. After incubation at 22° C. for 30 min, 100 μL of the reaction mixture was transferred to a quartz cuvette and the ultraviolet (UV) absorbance at 360 nm was measured. The assay was run in a miniaturized form to increase the concentration and therefore the enzymatic activity of DnaK. In a larger, standard format the ATPase activity of DnaK without peptide addition was 6 pmol/μg/min, in line with the published data of 4 pmol/μg/min [Liberek, K. et al, (1991) Proc. Natl. Acad. Sci. USA 88: 2874-2878].

[10] = tested on: alkaline phosphatase activities of live E. coli TG-1 cells; assay type: cell-based
[11] = tested on: β-galactosidase activities of live E. coli TG-1 cells; assay type: cell-based
[12] = tested on: E. coli D22; settings: Otvos et al, 2000, Protein Science; cited from earlier work
[13] = target: E. coli DnaK fragment aa583-615 (D-E helix hinge) (Escherichia coli, UniProt P0A6Y8); assay: Fluorescence polarization with synthetic DnaK fragment aa583-615; assay type: binding; settings: Tris HCl at pH 8.0; for binding to E. coli D-E helix hinge region aa583-615 at high concentration: 128 μM fragment
Procedure: The binding of the synthetic DnaK fragments to their fluorescein-labeled pyrrhocoricin counterparts was also assessed in solution, by fluorescence polarization [Lundblad, J. R. et al, (1996) Mol. Endocrinol. 10: 607-612]. For these experiments, the unlabeled peptides were serially diluted in PBS (pH 7.4) or 0.1 M Tris-HCl (pH 8.0) containing 0.1 M ethylene-diamine-tetraacetic acid (EDTA) in 50 μL final volume in 6×50 mm disposable glass borosilicate tubes. The fluoresceinated peptides were added to each tube in a 50 μL aliquot to a final concentration of 1 nM and tubes were incubated at 37° C. for 5 minutes. The extent of fluorescence anisotropy was measured on a Beacon 2000 fluorescence polarization instrument (PanVera, Madison, Wis.) and calculated as millipolarization values. The filters used were 485 nm excitation and 535 nm emission with 3 nm band width. Non-linear curve fitting was done by using a dose-response logistical transition [y=a0+a1/(1+x/a2)^a^3] and the Levenberg-Marquardt Algorithm within the SlideWrite software package. The provided Kd value (a2 coefficient) was calculated by the program.
To quantitatively characterize the pyrrhocoricin—D-E helix interaction, the complete binding curves were measured for E. coli DnaK fragments aa583-615 and aa588-615, both of SEQ ID NO: 10.

[14] = target: T2, S. aureus DnaK 554-585 (D-E helix fragment) (Staphylococcus aureus, UniProt P45554); assay: Fluorescence polarization with S. aureus DnaK D-E helix fragment; assay type: binding; settings: Tris HCl at pH 8.0
T2 sequence (P45554 554-585 limits assumed): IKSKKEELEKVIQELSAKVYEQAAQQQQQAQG

[15] = target: blocked E. coli DnaK fragment aa591-615 (Escherichia coli, UniProt P0A6Y8); assay type: binding
[16] = Hoffmann et al, 1999; cited from earlier work
[17] = peptide 32 μg/mL, live E. coli TG-1, four independent assays
[18] = peptide 32 μg/mL, live E. coli TG-1, three independent assays

E. coli DnaK fragment aa583-615 (D-E helix hinge), sequence (P0A6Y8 584-616): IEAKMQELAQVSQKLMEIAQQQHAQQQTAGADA
T1 sequence (P0A6Y8 whole entry): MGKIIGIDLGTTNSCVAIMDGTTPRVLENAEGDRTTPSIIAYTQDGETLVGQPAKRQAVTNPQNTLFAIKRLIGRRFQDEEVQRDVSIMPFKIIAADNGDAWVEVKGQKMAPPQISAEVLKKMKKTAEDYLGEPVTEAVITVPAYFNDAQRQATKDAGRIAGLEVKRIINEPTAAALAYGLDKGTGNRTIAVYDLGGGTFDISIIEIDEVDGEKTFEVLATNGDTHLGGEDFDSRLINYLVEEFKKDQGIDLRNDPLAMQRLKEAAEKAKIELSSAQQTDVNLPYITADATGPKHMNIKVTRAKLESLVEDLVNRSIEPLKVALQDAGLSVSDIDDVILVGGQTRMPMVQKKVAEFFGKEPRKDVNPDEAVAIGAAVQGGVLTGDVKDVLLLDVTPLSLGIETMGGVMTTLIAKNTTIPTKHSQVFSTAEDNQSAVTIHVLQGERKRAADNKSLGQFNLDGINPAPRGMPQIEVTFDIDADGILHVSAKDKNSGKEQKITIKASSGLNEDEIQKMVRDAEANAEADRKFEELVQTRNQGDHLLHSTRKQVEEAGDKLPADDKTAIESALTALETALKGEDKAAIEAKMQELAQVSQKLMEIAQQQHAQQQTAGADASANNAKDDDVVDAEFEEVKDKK
Hsp70, sequence (P0DMV8 whole entry): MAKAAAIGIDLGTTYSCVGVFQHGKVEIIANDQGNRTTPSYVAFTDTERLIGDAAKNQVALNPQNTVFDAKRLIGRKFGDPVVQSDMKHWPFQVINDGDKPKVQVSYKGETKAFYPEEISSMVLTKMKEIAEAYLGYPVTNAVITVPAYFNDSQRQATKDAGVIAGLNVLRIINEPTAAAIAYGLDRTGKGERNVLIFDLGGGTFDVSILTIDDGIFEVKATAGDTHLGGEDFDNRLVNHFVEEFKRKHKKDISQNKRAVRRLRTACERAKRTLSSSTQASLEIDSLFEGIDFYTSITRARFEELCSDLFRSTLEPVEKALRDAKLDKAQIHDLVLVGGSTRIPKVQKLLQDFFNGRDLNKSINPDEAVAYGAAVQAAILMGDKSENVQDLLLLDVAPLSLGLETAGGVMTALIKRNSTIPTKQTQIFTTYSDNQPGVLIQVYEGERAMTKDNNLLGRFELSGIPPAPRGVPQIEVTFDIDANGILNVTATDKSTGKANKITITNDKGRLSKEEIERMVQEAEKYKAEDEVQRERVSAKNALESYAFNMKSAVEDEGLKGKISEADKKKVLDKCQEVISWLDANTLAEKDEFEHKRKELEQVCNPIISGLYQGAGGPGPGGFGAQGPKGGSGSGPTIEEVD
E. coli DnaK aa397-439, conventional peptide binding pocket, sequence (P0A6Y8 397-439): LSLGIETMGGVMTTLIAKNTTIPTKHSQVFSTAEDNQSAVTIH
E. coli DnaK aa583-615, hinge region between helices D and E, sequence (P0A6Y8 584-616 limits assumed): as the sequence (P0A6Y8 584-616) above
DnaK, sequence (P0A6Y8 whole entry, the tested form may be a part): as the sequence (P0A6Y8 whole entry) above
GroEL, sequence (P0A6F5 2-548 limits assumed): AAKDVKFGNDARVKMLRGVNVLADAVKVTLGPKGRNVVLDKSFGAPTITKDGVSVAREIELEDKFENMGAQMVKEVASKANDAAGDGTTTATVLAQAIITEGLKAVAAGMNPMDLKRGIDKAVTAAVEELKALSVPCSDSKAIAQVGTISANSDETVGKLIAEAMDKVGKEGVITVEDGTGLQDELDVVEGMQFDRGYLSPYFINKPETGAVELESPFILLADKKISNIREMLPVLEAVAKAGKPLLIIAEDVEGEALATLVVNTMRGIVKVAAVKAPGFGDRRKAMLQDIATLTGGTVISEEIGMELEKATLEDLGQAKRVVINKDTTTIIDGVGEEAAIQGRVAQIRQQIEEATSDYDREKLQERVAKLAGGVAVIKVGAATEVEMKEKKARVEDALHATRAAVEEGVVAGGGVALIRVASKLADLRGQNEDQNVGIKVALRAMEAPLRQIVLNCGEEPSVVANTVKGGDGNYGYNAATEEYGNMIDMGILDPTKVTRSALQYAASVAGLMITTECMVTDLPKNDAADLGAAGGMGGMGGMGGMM
blocked E. coli DnaK fragment aa591-615, sequence (P0A6Y8 592-616 limits assumed): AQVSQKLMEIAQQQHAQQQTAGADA

Substance: Biotin-KVDKGSYLPRPTPPRPIYNRN [biotin-K-pyrrhocoricin]
- binding to E. coli LPS on Western-blot [1]: did not label LPS bands
- binding to S. typhimurium LPS on Western-blot [2]: did not label LPS bands
- binding to Hsp70 on the peptide blot [3]: very weak peptide binding
- binding to DnaK on the peptide blot [4]: bound strongly
- dot blot binding to peptide-binding pocket fragment [5]: similarly bound
- concentration range killing E. coli strains [6]: submicromolar range
- binding to GroEL on the peptide blot [7]: very weak peptide binding
- dot blot binding to D-E helix hinge fragment [8]: bound

Substance: Cecropin A: membrane-active antimicrobial peptide; purchased from Bachem (KWKLFKKIEKVGQNIRDGIIKAGPAVAVVGQATQIAK)
- effect on ATPase activity of recombinant DnaK [9]: did not influence

Substance: Conantokin G
- Inhibition of enzymatic activity after 1 hour (%) Alkaline Phosphatase [10]: (−3) ± 23%
- Inhibition of enzymatic activity after 1 hour (%) β-Galactosidase [11]: (−10) ± 10%

Substance: D-pyrrhocoricin: SEQ ID NO: 3 with all amino acids in the D configuration; inactive analog ([dV][dD][dK]G[dS][dY][dL][dP][dR][dP][dT][dP][dP][dR][dP][dI][dY][dN][dR][dN])
- Inhibition of enzymatic activity after 1 hour (%) Alkaline Phosphatase [10, 17]: (−6) ± 16%
- Inhibition of enzymatic activity after 1 hour (%) β-Galactosidase [11, 18]: (−4) ± 43%
- killing of E. coli D22 [12]: completely inactive
- effect on ATPase activity of recombinant DnaK [9]: negligible effect

Substance: Magainin 2: antibacterial peptide that kills bacteria by disintegrating the membrane; from Bachem (GIGKFLHSAKKFGKAFVGEIMNS)
- Inhibition of enzymatic activity after 1 hour (%) Alkaline Phosphatase [10, 17]: (−23) ± 38%
- Inhibition of enzymatic activity after 1 hour (%) β-Galactosidase [11, 18]: (−50) ± 55%
- effect on ATPase activity of recombinant DnaK [9]: did not influence

Substance: NTDGSTDYGILQINSR
- binding to E. coli D-E helix hinge region aa583-615 ([13]; labeled peptide 1 nM): failed to bind

Substance: N—F-apidaecin: apidaecin with fluorescein label attached at the N-terminus
- binding to S. aureus D-E helix fragment [14]: failed to bind
- binding to E. coli D-E helix hinge region aa583-615 at high concentration [13]: some binding

Substance: N—F-drosocin: drosocin with fluorescein label attached at the N-terminus (fluorescein-KGKPRPYSPRPTSHPRPIRV)
- binding to S. aureus D-E helix fragment [14]: failed to bind
- binding to E. coli D-E helix hinge region aa583-615 at high concentration [13]: some binding
- binding to blocked E. coli DnaK fragment aa591-615 [15]: failed to bind

Substance: native glycosylated drosocin: native drosocin glycopeptide with a disaccharide in the mid-chain position (GKPRPYSPRPTSHPRPIRV; also: O-glycosylated disaccharide in mid-chain position; UniProt P36193 22-40, looked up)
- antibacterial activity when injected into mice [16]: no antibacterial activity
